Test results: US8729035B2, “Synthesis of novel neamine derivatives and use thereof as antibacterial agents” (Universite Joseph Fourier, priority 2008, dated 2014)
Converted amounts (≈) assume the structure as drawn. Like-named read-outs stand apart in the source and are kept apart here.

Assays:
Test in all cases: MIC determination on r-methylase-expressing resistant Gram (-) bacteria
[1] = tested on: C. amalonaticus 06AB0010 arm; format: cell-based; settings: Citrobacter amalonaticus, 06AB0010ARM
Protocol: (§1) The molecules were dissolved in water or DMSO at a concentration of 5 or 10 mg/mL, then the solutions were diluted if necessary. A volume of 200 μL of each of them was put onto a 96-well plate.
(§2) C—Determination of the MIC
(§3) The molecules with a screening score of 10 or 100 were selected to determine their MICs relative to the strains tested.
(§4) As for the validation of the strains, the solution of the molecule selected was diluted by a factor of 2, times 2, using the Biomek2000 robot in 96-well plates to cover a wide range of concentrations. To each of these wells was added a volume of inoculum made from the previous days preculture diluted to 1/100th strength. Each well was repeated. Again, controls of non-contamination, growth and resistance/sensitivity to a reference antibiotic were included in the experiment. The plate was incubated at 37° C., and the kinetics of the bacterial proliferation were monitored over 24 hours, by measuring the OD620 nm at 0, 1, 4, 7, and 24 hours.
(§5) The MIC was the lowest concentration found to be capable of inhibiting bacterial proliferation after 24 hours incubation. Having no previous idea of this value it was possible that it might not fall within the range of dilutions chosen. If this was the case the operation had to be repeated adjusting this range.
(§6) Similar measurements were made on various Gram (−) bacteria. The strains tested were provided by R. Vanhoof (E. coli PAZ505H8101 and L58058.1, P. aeruginosa ATCC 27853, Psa.F03, A. lwoffi A1.88-483), Y. Glupczynski (C. amalonaticus Ca06AB0010), J. C. Pechere (P. aeruginosa PA02, PA03), P. Plésiat (P. aeruginosa PA01, PA21, PA22), H. Schweizer (P. aeruginosa PA405, PA406).

E. coli 06AB003 arm = format: cell-based; settings: Escherichia coli, 06AB003ARM, 24 h
Protocol: as §1, §2, §3, §4, §5, §6

E. aerogenes 06AB008 arm = format: cell-based, Enterobacter aerogenes; settings: Klebsiella aerogenes, 06AB008ARM, 24 h
Protocol: as §1, §2, §3, §4, §5, §6

`NCC1OC(OC2C(N)CC(N)C(OCc3cccc4ccccc34)C2O)C(N)C(OCc2cccc3ccccc23)C1O` (stereo not drawn) [3′,6-di1NM, 3′,6-O,O′-di(naphthyl-1-methylene) neamine] showed an MIC ([1]; resistant bacteria expressing an RNA methylation enzyme (r-methylase), one value stated for the three strains together, 24 hours incubation, read-out: MIC) of 4 to 16 µg/mL (≈ 6.64 to 26.5 µM), an MIC (E. coli 06AB003 arm) of 4 to 16 µg/mL (≈ 6.64 to 26.5 µM) and an MIC (E. aerogenes 06AB008 arm) of 4 to 16 µg/mL (≈ 6.64 to 26.5 µM).

`NC[C@H]1O[C@H](O[C@H]2[C@H](O)[C@@H](O[C@H]3O[C@H](CO)[C@@H](O)[C@H](N)[C@H]3O)[C@H](N)C[C@@H]2N)[C@H](N)C[C@@H]1O` [tobramycin] was tested, and the MIC ([1]; 24 h) was > 128 µg/mL, the MIC (E. coli 06AB003 arm) was > 128 µg/mL and the MIC (E. aerogenes 06AB008 arm) was > 128 µg/mL.

`NCC[C@H](O)C(=O)N[C@@H]1C[C@H](N)[C@@H](O[C@H]2O[C@H](CN)[C@@H](O)[C@H](O)[C@H]2O)[C@H](O)[C@H]1O[C@H]1O[C@H](CO)[C@@H](O)[C@H](N)[C@H]1O` [amikacin] was tested, and the MIC ([1]; 24 h) was > 128 µg/mL, the MIC (E. coli 06AB003 arm) was > 128 µg/mL and the MIC (E. aerogenes 06AB008 arm) was > 128 µg/mL.
